The record followed here is ChEMBL document CHEMBL1158646, “Potential Antitumor Agents: A Cytotoxic Cardenolide From Coronilla varia” (1979).

The structures appear in SMILES notation. ≈ marks a conversion by molar mass, not a printed value. Calls of active or inactive are those of the source. The rule behind the calls is not given here.

For assay [1], the system named is P388. Description: Antitumor activity against mouse P388 cells in mouse assessed as median survival time at 8 mg/kg relative to control. It is filed as functional, organism-based. On the set-up: dose 8 mg/kg.
A short description of assay [2]: Cytotoxicity against human 9KB cells. It is filed as functional. Particulars: read-out: ED50 (the source's name).
The next assay has as its system B16. Description: Cytotoxicity against mouse B16 cells. It is filed as functional, cell-based.
The next assay relates to L1210. In words: Cytotoxicity against mouse L1210 cells. The assay is classed as functional, cell-based.
The next assay relates to Lewis lung carcinoma. In words: Cytotoxicity against mouse LLC cells. It is filed as functional, cell-based.
In assay [3] the test system is P388. Description: Antitumor activity against mouse P388 cells in mouse assessed as median survival time at 1.25 mg/kg relative to control. It is filed as functional.

On to `C[C@]12CC[C@H]3[C@@H](CCC4=C[C@@H](O[C@@H]5OC[C@@H](O)[C@H](O)[C@H]5O)CC[C@@]43C=O)[C@@]1(O)CC[C@@H]2C1=CC(=O)OC1` [DEGLUCOHYRCANOSIDE], for which the result in the assay on P388 [1] was inactive. In addition, in assay [2], the EC50 stood at 0.02 µg/mL (≈ 0.0386 µM).

For orientation: T/C means the result in the treated group divided by that in the control group, in per cent. As to `C[C@]12CC[C@H]3[C@@H](CCC4=C[C@@H](O[C@@H]5OC[C@@H](O[C@@H]6O[C@H](CO)[C@@H](O)[C@H](O)[C@H]6O)[C@H](O)[C@H]5O)CC[C@@]43C=O)[C@@]1(O)CC[C@@H]2C1=CC(=O)OC1` [HYRCANOSIDE], the result in the assay on B16, in the assay with L1210 and in the assay with Lewis lung carcinoma was inactive. Besides, the EC50 in assay [2] was 0.1 µg/mL (≈ 0.147 µM). Besides, the T/C with P388 [3] amounted to 133%.
